Source: patent US9995734B2, “Human T cell line assay for evaluating the immunologic identity of glatiramer acetate preparations” (Mylan Inc., priority 2013, dated 2018)

System: Donor 1 COP T-Cell Lines
Test: IFN-γ ELISA, Donor 1 COP T-cell lines
Type: cell-based, human
Conditions: for IFN-γ (ELISA), mean: 10 μg/mL, autologous B-LCL; for IFN-γ production in response to GA: 222-2D8, 222-2E1, 222-2B11, 222-2C3, 222-2B8, 222-2G12, 222-2F12
Description: Culture medium was removed from cultures prepared as for proliferation assay and utilized to measure cytokine production. In most cases culture medium was collected 18-24 hours after mixing T-cells, APC, and stimulating antigen. Cytokine production was measured by ELISA or bead assay. For measuring cytokine production, 100-150 μL culture medium (100 μL if culture was to be continued, otherwise 150 μL) was removed from each well. In some cases, the culture was continued 48 hours, for a total of 72 hours of culture, and the proliferative response measured.
IFN-γ concentration in culture supernatants was measured by a sandwich ELISA using two anti-IFN-γ monoclonal antibodies. Clone 2G1 was used for capture, and biotinylated antibody from clone B133.5 was used for detection (both from Endogen). Recombinant IFN-γ was used to construct a standard curve ranging from 1000 to 15 pg/mL.
Based on the increases in ATP level observed (i.e., a ratio of relative luminescence in wells with antigen to control wells without antigen of two or more), fifteen presumptive GA-specific T-cell lines in the original plate were moved to a 24-well plate at Day 26 and restimulated with 10 μg/mL Copaxone in the presence of autologous EBV-transformed B-LCL (5×10^5 per well, i.e., 2.5×10^5/mL). At Day 27 IL-2 was added. On Day 34, the fifteen presumptive lines were restimulated with 10 μg/mL GMA or 10 μg/mL COP in the presence of mitomycin-treated autologous B-LCL (4×10^4 per well; 2×10^5 per mL), or incubated with mitomycin-treated autologous B-LCL and no antigen. On Day 35 IL-2 was added to continued cultures. On Day 36 culture supernatant was collected from test cultures and IFN-γ production measured by ELISA (48 hours after restimulation). IFN-γ protein concentrations were determined using a TMB standard curve.

[1] = 222-1G8, 48 hours, T-cells + B-LCL >1000
[2] = 222-1H12, 48 hours, T-cells + B-LCL >1000
[3] = 222-2B8, 48 hours, T-cells + B-LCL 599
[4] = 222-2B11, 48 hours, T-cells + B-LCL 354
[5] = 222-2C3, 48 hours, T-cells + B-LCL 538
[6] = 222-2D8, 48 hours after restimulation, T-cells + B-LCL 270
[7] = 222-2E1, 48 hours, T-cells + B-LCL 457
[8] = 222-2F12, 48 hours, T-cells + B-LCL 295
[9] = 222-2G12, 48 hours, T-cells + B-LCL 515

Substance | IFN-γ (ELISA), mean [1] | IFN-γ (ELISA), mean [2] | IFN-γ (ELISA), mean [3] | IFN-γ (ELISA), mean [4] | IFN-γ (ELISA), mean [5] | IFN-γ production in response to GA | IFN-γ (ELISA), mean [6] | IFN-γ (ELISA), mean [7] | IFN-γ (ELISA), mean [8] | IFN-γ (ELISA), mean [9] | other results
glatiramer acetate [GMA] | >1000 pg/mL | >1000 pg/mL | >1000 pg/mL | >1000 pg/mL | >1000 pg/mL | reacted | >1000 pg/mL | >1000 pg/mL | >1000 pg/mL | >1000 pg/mL | IFN-γ (ELISA), mean (222-1C5, 48 hours, T-cells + B-LCL 821): 776 pg/mL; IFN-γ (ELISA), mean (222-1F8, 48 hours, T-cells + B-LCL 120): 169 pg/mL; IFN-γ (ELISA), mean (222-2C1, 48 hours, T-cells + B-LCL 369): 392 pg/mL; IFN-γ (ELISA), mean (222-2C5, 48 hours, T-cells + B-LCL 325): 245 pg/mL; IFN-γ (ELISA), mean (222-2D2, 48 hours, T-cells + B-LCL 68): 131 pg/mL; IFN-γ (ELISA), mean (222-2G4, 48 hours, T-cells + B-LCL 280): 438 pg/mL
glatiramer acetate [COP] | >1000 pg/mL | >1000 pg/mL | >1000 pg/mL | >1000 pg/mL | >1000 pg/mL | reacted | >1000 pg/mL | >1000 pg/mL | >1000 pg/mL | >1000 pg/mL | IFN-γ (ELISA), mean (222-1C5, 48 hours, T-cells + B-LCL 821, listed as Copaxone): 700 pg/mL; IFN-γ (ELISA), mean (222-1F8, 48 hours, T-cells + B-LCL 120, listed as Copaxone): 156 pg/mL; IFN-γ (ELISA), mean (222-2C1, 48 hours, T-cells + B-LCL 369, listed as Copaxone): 417 pg/mL; IFN-γ (ELISA), mean (222-2C5, 48 hours, T-cells + B-LCL 325, listed as Copaxone): 273 pg/mL; IFN-γ (ELISA), mean (222-2D2, 48 hours, T-cells + B-LCL 68, listed as Copaxone): 133 pg/mL; IFN-γ (ELISA), mean (222-2G4, 48 hours, T-cells + B-LCL 280, listed as Copaxone): 416 pg/mL
